Usually Ki stands for a dissociation constant, usually derived from enzyme kinetics or from competition with a known ligand. By IC50 is commonly meant the midpoint of a concentration-inhibition curve. A word on the EC50: it is the concentration needed to bring the measured effect to its halfway point.

A value given as a limit tells only on which side of the number the result lay.

Here are results for 17 compounds from ChEMBL document CHEMBL1129330, “Synthesis and pharmacological characterization of all sixteen stereoisomers of 2-(2'-carboxy-3'-phenylcyclopropyl)glycine. Focus on (2S,1'S,2'S,3'R)-2-(2'-carboxy-3'-phenylcyclopropyl)glycine, a novel and selective group II metabotropic glutamate receptors antagonist” (J Med Chem, 1996).

Experiment [1] concerns the target Glutamate receptor ionotropic, AMPA (Rattus norvegicus, UniProt P19490+P19491+P19492+P19493). Kind of experiment: Binding affinity towards Ionotropic glutamate receptor AMPA. The format is protein-complex assay.
Experiment [2] addresses Glutamate receptor ionotropic, kainate. Kind of experiment: Binding affinity towards Ionotropic glutamate receptor kainate. The format is protein-complex assay.
For experiment [3], the target named is T1, Metabotropic glutamate receptor 2 (Homo sapiens, UniProt Q14416). The experiment is described as follows: Concentration required for the half-maximal inhibition of cAMP […] in BHK cells expressing mGluR2. The format is functional, cell-based.
Experiment [4] addresses T1, Metabotropic glutamate receptor 2. The experiment is described as follows: Effective concentration forskolin-stimulated cAMP formation in BHK cells expressing mGluR2 receptor. It is filed as functional, cell-based. In general terms: cAMP levels reflect the balance of adenylyl cyclase and phosphodiesterase activity.
Experiment [5] has as its target Glutamate NMDA receptor. The experiment is described as follows: Binding affinity towards Ionotropic glutamate receptor NMDA. It is filed as protein-complex assay.
Experiment [6] is described as follows: Inhibitory concentration towards calcium/chloride-dependent glutamate transport into synaptosomes. It is filed as functional, subcellular, Rattus norvegicus, Brain.
Experiment [7] in a line: Inhibitory concentration towards the sodium dependent glutamate transport into synaptosomes. It is filed as functional, subcellular, Brain.
Experiment [8] deals with T1, Metabotropic glutamate receptor 2. The experiment is described as follows: Antagonistic activity against mGluR2 was determined. It is filed as functional.
Experiment [9] deals with Metabotropic glutamate receptor 1 (Homo sapiens, UniProt Q13255). Kind of experiment: Binding affinity towards mGluR1a was determined.
Experiment [10] concerns the target T1, Metabotropic glutamate receptor 2. The experiment is described as follows: Concentration required for the half-maximal inhibition of cAMP formation in BHK cells expressing mGluR2. It is filed as functional, cell-based.
The target is the same in experiment [11]. The experiment is described as follows: Effective concentration of compound against forskolin-stimulated cAMP formation in BHK cells expressing mGluR2 receptor. It is filed as functional, cell-based.
For experiment [12] the target is unchanged. Kind of experiment: Concentration required for the half-maximal inhibition of cAMP formation in BHK cells expressing mGluR2. The format is functional, cell-based.

T1 sequence (Q14416 whole entry): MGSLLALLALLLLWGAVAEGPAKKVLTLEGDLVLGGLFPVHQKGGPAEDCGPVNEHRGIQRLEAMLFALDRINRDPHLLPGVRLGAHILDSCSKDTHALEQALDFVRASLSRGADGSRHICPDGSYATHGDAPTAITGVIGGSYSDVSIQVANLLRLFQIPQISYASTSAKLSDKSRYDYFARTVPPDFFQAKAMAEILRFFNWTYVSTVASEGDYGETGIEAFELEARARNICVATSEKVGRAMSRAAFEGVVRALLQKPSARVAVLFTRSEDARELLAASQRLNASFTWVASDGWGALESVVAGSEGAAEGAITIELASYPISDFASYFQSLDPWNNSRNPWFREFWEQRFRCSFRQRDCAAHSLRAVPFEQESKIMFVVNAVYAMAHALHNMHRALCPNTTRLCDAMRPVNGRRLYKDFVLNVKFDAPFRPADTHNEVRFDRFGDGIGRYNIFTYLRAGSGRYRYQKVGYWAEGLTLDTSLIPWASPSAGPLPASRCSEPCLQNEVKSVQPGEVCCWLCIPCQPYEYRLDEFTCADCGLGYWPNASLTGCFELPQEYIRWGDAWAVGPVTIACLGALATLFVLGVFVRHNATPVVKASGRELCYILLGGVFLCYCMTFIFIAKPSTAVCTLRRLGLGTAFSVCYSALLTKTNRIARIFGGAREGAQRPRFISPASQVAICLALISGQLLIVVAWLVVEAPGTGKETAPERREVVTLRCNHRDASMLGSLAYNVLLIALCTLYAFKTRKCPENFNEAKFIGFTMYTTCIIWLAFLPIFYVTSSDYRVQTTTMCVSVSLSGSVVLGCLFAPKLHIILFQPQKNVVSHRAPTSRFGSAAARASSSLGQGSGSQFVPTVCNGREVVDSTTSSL
Metabotropic glutamate receptor 1, sequence (Q13255 whole entry): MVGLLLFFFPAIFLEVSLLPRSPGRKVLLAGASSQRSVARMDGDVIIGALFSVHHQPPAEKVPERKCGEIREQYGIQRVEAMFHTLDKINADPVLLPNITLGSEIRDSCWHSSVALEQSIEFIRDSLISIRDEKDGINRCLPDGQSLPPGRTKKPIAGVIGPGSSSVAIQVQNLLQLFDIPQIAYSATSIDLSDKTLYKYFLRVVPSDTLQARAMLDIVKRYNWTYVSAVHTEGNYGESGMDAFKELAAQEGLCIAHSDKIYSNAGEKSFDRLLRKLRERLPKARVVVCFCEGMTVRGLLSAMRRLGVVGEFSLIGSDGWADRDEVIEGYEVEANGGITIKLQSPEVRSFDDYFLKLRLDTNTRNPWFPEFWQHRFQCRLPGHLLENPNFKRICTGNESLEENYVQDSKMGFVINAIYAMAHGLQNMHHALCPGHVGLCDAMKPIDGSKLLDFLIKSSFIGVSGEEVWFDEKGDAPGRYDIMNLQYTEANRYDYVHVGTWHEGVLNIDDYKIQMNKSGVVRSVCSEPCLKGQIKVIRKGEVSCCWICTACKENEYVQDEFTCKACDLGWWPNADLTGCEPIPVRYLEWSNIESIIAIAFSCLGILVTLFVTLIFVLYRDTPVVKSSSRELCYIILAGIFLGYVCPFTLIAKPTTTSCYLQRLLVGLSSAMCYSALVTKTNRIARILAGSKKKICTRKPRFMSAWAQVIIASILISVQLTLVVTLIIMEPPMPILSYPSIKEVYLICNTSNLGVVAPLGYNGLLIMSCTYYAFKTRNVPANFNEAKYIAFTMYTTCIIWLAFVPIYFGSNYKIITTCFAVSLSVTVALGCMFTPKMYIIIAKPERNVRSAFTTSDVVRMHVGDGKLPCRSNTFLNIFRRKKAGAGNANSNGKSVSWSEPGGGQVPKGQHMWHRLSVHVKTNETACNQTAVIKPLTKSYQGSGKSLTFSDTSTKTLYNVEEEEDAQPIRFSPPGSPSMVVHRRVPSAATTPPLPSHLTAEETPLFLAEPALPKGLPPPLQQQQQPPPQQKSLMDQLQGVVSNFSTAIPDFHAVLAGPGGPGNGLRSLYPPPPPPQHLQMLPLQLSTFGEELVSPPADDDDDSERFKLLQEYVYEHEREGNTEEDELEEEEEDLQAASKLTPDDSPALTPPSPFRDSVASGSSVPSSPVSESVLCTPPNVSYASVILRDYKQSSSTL

For `N[C@@H](C(=O)O)[C@@H]1[C@H](C(=O)O)[C@@H]1c1ccccc1`, the Ki is 251 µM in [1], 122 µM in experiment [2] and above 200 µM in [5]. The IC50 in experiment [3] was above 300 µM; in [6], 143 µM; in experiment [7], above 300 µM. In addition, the EC50 in [4] is above 300 µM.

`N[C@@H](C(=O)O)[C@H]1[C@H](C(=O)O)[C@@H]1c1ccccc1`: the Ki was above 300 µM in [1], above 190 µM in experiment [2] and above 200 µM in experiment [5]. Moreover, the IC50 in experiment [3] is above 300 µM; in [6] it was 23 µM; in experiment [7], above 300 µM. Further, the EC50 in [4] was above 300 µM.

For the compound `N[C@H](C(=O)O)[C@H]1[C@H](C(=O)O)[C@@H]1c1ccccc1`, the Ki in experiment [1] was above 220 µM; in experiment [2], above 190 µM; in experiment [5], 25 µM. The results for the IC50 in experiment [3], in experiment [6] and in [7] were above 300 µM, 85 µM and above 300 µM, respectively. For the same compound, the half-maximal effective concentration (EC50) in experiment [4] was above 300 µM.

Regarding `N[C@@H](C(=O)O)[C@H]1[C@@H](C(=O)O)[C@@H]1c1ccccc1`, the Ki in experiment [1] was determined as 160 µM; in experiment [2], 155 µM; in experiment [5], 123 µM. Further, the IC50 was above 300 µM in experiment [3], 64 µM in experiment [6] and above 300 µM in experiment [7]. Further, in [4], the EC50 is above 300 µM.

Consider `N[C@H](C(=O)O)[C@H]1[C@@H](C(=O)O)[C@@H]1c1ccccc1`, for which the figures for the Ki in [1], in [2] and in experiment [5] were 141 µM, 144 µM and above 200 µM, respectively. The IC50 in [3] was above 300 µM; in experiment [6] it was 213 µM; in [7] it was above 300 µM. In experiment [4], this compound showed an EC50 above 300 µM.

As for `CC(N)(C(=O)O)c1ccc(C(=O)O)cc1` (stereo not given), in experiment [8], the IC50 was 50 µM. In [9], this compound had a Ki of 50 µM.

For `N[C@@H](C(=O)O)[C@@H]1[C@@H](C(=O)O)[C@H]1c1ccccc1`, the Ki in experiment [1] is above 220 µM; in experiment [2] it was above 190 µM; in experiment [5], 29 µM. Further, the IC50 in experiment [3] is above 300 µM; in experiment [6], 138 µM; in [7], above 300 µM. Moreover, the EC50 in experiment [4] is above 300 µM.

In the case of `N[C@H](C(=O)O)[C@H]1[C@@H](C(=O)O)[C@H]1c1ccccc1`, the Ki was above 220 µM in experiment [1], above 190 µM in experiment [2] and above 200 µM in experiment [5]. Besides, the IC50 in experiment [3] is above 300 µM; in experiment [6], 233 µM; in [7], above 300 µM. Further, in [4], the EC50 was above 300 µM.

Regarding `N[C@@H](C(=O)O)[C@H]1[C@@H](C(=O)O)[C@H]1c1ccccc1`, the results for the Ki in experiment [1], in experiment [2] and in experiment [5] were above 220 µM, 117 µM and above 200 µM, respectively. The IC50 was above 300 µM in [3], 32 µM in [6] and above 300 µM in [7]. This compound gave an EC50 in [4] above 300 µM.

As for `N[C@@H](C(=O)O)[C@@H]1[C@H](C(=O)O)[C@H]1c1ccccc1` (stereo in doubt; 44), the Ki was above 220 µM in experiment [1], above 190 µM in [2] and above 200 µM in experiment [5]. Further, the IC50 in experiment [3], in experiment [6] and in experiment [7] was above 300 µM throughout. The compound further gave an EC50 in experiment [4] above 300 µM.

As for `N[C@H](C(=O)O)[C@@H]1[C@@H](C(=O)O)[C@H]1c1ccccc1`, the figures for the Ki in experiment [1], in [2] and in experiment [5] were above 220 µM, 126 µM and 192 µM, respectively. Further, the values for the IC50 in experiment [3], in experiment [6] and in experiment [7] were above 300 µM, 7 µM and above 300 µM, respectively. Further, the EC50 in experiment [4] was above 300 µM.

Regarding `N[C@H](C(=O)O)[C@@H]1[C@H](C(=O)O)[C@@H]1c1ccccc1`, the Ki was above 220 µM in experiment [1], 155 µM in [2] and above 200 µM in [5]. In addition, the IC50 is above 300 µM in experiment [3], 270 µM in experiment [6] and above 300 µM in experiment [7]. Besides, the EC50 in experiment [4] is above 300 µM.

As to `N[C@@H](C(=O)O)[C@@H]1[C@@H](C(=O)O)[C@@H]1c1ccccc1`, the Ki in experiment [1] is 212 µM; in experiment [2] it was above 190 µM; in experiment [5], 193 µM. The IC50 in experiment [10], in [6] and in experiment [7] was above 300 µM each time. In addition, the EC50 in [11] was above 300 µM.

As for `N[C@@H](C(=O)O)[C@H]1[C@H](C(=O)O)[C@H]1c1ccccc1`, the Ki in [1] was 125 µM; in experiment [2], 15 µM; in experiment [5], 129 µM. Also, a half-maximal effect in [4] (EC50) was put at 122 µM. Also, the IC50 in experiment [6] and in experiment [7] was above 300 µM throughout.

`N[C@H](C(=O)O)[C@H]1[C@H](C(=O)O)[C@H]1c1ccccc1`: the results for the Ki in experiment [1], in [2] and in experiment [5] were 124 µM, 25 µM and 107 µM, respectively. The EC50 in [4] was above 300 µM. The IC50 in [12] was above 300 µM; in experiment [6] it was 41 µM; in experiment [7], above 300 µM.

On to `N[C@@H](C(=O)O)[C@@H]1[C@H](C(=O)O)[C@H]1c1ccccc1` (stereo in doubt; 47), for which the inhibition constant (Ki) in experiment [1] worked out at 285 µM; in experiment [2], 221 µM. The IC50 in [3] (bhk) was above 300 µM; in experiment [6] it was 185 µM. Further, the EC50 in [4] (bhk) is above 300 µM.

Regarding `N[C@H](C(=O)O)[C@@H]1[C@@H](C(=O)O)[C@@H]1c1ccccc1`, the Ki in experiment [1] was above 220 µM; in [2], above 190 µM; in experiment [5], above 200 µM. For the same compound, the figures for the IC50 in experiment [3], in experiment [6] and in [7] were 8 µM, above 300 µM and above 300 µM, respectively.
